Series [1] concerns BT-474. In words: Antiproliferative activity against human BT-474 cells assessed as inhibition of cell viability at 10 uM measured after 72 hrs by CellTiter 96 Aqueous One Solution Cell Proliferation Assay. It is filed as functional, cell-based.
In a further series the test system is HEK293. The experiment in a line: Cytotoxicity against HEK293 cells assessed as reduction in cell viability at 10 uM measured after 72 hrs by CellTiter 96 Aqueous One Solution Cell Proliferation Assay. It is filed as toxicity, cell-based. The conditions noted are these: human, hek293, 72 h.
Series [2] concerns JIMT-1. In words: Antiproliferative activity against human JIMT-1 cells assessed as inhibition of cell viability at 10 uM measured after 72 hrs by CellTiter 96 Aqueous One Solution Cell Proliferation Assay. The series is classed as functional, cell-based.
The species entered for a further series is Homo sapiens. The experiment in a line: Inhibition of N-terminal HSP90 (unknown origin) at 10 uM by AlphaLISA assay.
For series [3], the system named is BT-474. In words: Antiproliferative activity against human BT-474 cells assessed as inhibition of cell viability at 10 uM measured after 72 hrs by CellTiter 96 Aqueous One Solution Cell Proliferation Assay relative to control. It is filed as functional.
Series [4] has as its system JIMT-1. In words: Antiproliferative activity against human JIMT-1 cells assessed as inhibition of cell viability at 10 uM measured after 72 hrs by CellTiter 96 Aqueous One Solution Cell Proliferation Assay relative to control. The series is classed as functional.

Molecules are shown by their SMILES. Activity calls are given as the source filed them. The rule behind the calls is not given here.

As to `COCCn1cc(NC(=O)c2ccc3c(c2OC)C=CC(C)(C)O3)c2ccccc21`, the outcome in the series on BT-474 [1] and with JIMT-1 [2] was Active. The Activity entry in the series on HEK293 is recorded as “Toxic”. In the case of `CO[C@@H]1[C@@H](OC(N)=O)[C@@H](O)[C@H](Oc2ccc3c(O)c(NC(=O)c4ccc(O)c(CC=C(C)C)c4)c(=O)oc3c2C)OC1(C)C`, the inhibition entry in the series filed under Homo sapiens was “inactive”. For `COCCn1nc(NC(=O)c2ccc3c(c2OC)C=CC(C)(C)O3)c2ccccc21`, the Activity result in the series on HEK293 is recorded as “Toxic”. For the same compound, the inhibition at 10 µM with BT-474 [3] and with JIMT-1 [4] was above 50% in each case.

`COc1c(C(=O)Nc2nn(CCC3CCN(C)CC3)c3ccccc23)ccc2c1C=CC(C)(C)O2`: in the series with BT-474 [3], the inhibition at 10 µM was above 50%. Regarding `CC(C)c1cc(C(=O)N2Cc3ccc(CN4CCN(C)CC4)cc3C2)c(O)cc1O`, the inhibition result in the series listed under Homo sapiens is “Active”. Take `CC(C)c1cc(-c2n[nH]c(=O)n2-c2ccc3c(ccn3C)c2)c(O)cc1O`: in the series listed under Homo sapiens, the inhibition result was “Active”.

As a reminder, the inhibition is the relative decrease from the control value, in per cent.
